Data taken from paper PMC7057854, “Adapting free energy perturbation simulations for large macrocyclic ligands: how to dissect contributions from direct binding and free ligand flexibility” (Chemical Science, 2020).

What was measured:
[1] = parameters: method as in earlier work; details: octanol-water partitioning, received from literature; ref 3–5 (supplement); cited from earlier work
Text: page 19: Table S8: Reference compounds used to establish a calibration curve for LogD determination.

[2] = HPLC-based LogD determination; details: for tR (retention time used for LogD determination): HPLC-UV 254 nm, Nucleodur C18 Gravity, 50 mM ammonium acetate pH 7.4 (A) / acetonitrile (B), 0 min 0 % B to 20 min 95 % B, 1 mL/min, acetylated peptides, triplicates
[3] = biological target: T1, 14-3-3ζ full length His-tag (Homo sapiens, UniProt P63104); assay: biochemical; type: binding; details: for BEI (binding efficiency index): BEI = pKd/(MW × 10^–3), pKd from direct FP of FITC-labelled peptides
T1 sequence (P63104 1-245): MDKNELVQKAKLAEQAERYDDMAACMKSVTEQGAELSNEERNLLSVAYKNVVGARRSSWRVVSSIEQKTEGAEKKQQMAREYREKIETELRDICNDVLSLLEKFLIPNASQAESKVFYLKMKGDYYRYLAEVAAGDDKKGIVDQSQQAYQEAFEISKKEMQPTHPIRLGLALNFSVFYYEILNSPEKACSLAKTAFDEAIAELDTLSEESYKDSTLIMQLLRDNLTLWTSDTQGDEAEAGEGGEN

[4] = biological target: T1, 14-3-3ζ full length His-tag; assay: biochemical

Row | Structure (SMILES) | tR (retention time used for LogD determination) [2] [min] | Kd [3] [nM] | chromatographic logD ([2]; pH 7.4) | also measured
1 | COc1ccc([C@@H]2Sc3ccccc3N(CCN(C)C)C(=O)[C@@H]2OC(C)=O)cc1 [Diltiazem, reference compound] | 15.31±0.002 |  |  | LogD of reference compound [1]: 2.70
2 | CC(CCc1ccccc1)NCC(O)c1ccc(O)c(C(N)=O)c1 (stereo not drawn) [Labetolol, reference compound] | 12.14±0.010 |  |  | 
3 | COCCc1ccc(OCC(O)CNC(C)C)cc1 (stereo not drawn) [Metoprolol, reference compound] | 10.21±0.024 |  |  | LogD of reference compound [1]: -0.06
4 | CC(C)C[C@H](NC(=O)[C@H](CC(=O)O)NC(=O)[C@H](CC(C)C)NC(=O)[C@]1(C)CCCCCCCC[C@@](C)(NC(=O)CNC(=O)[C@H](CCC(N)=O)NC(=O)COCCOCCNC(=S)Nc2ccc3c(c2)C(=O)OC32c3ccc(O)cc3Oc3cc(O)ccc32)C(=O)N[C@@H](CC(C)C)C(=O)N[C@@H](CC(=O)O)C(=O)N1)C(=O)N[C@@H](C)C(=O)N[C@@H](C)C(N)=O [S430A] |  | 72 ± 5 |  | 
5 | CC(=O)N[C@@H](CCC(N)=O)C(=O)NCC(=O)N[C@]1(C)CCCCCCCC[C@@](C)(C(=O)N[C@@H](CC(C)C)C(=O)N[C@@H](CC(=O)O)C(=O)N[C@@H](CC(C)C)C(=O)N[C@@H](C)C(=O)N[C@@H](CO)C(N)=O)NC(=O)[C@H](CC(=O)O)NC(=O)[C@H](CC(C)C)NC1=O [compound 1] | 12.58±0.197 |  | 1.15 ± 0.068 | 
6 | CC(C)C[C@H](NC(=O)[C@H](CC(=O)O)NC(=O)[C@H](CC(C)C)NC(=O)[C@]1(C)CCCCCCCC[C@@](C)(NC(=O)CNC(=O)[C@H](CCC(N)=O)NC(=O)COCCOCCNC(=S)Nc2ccc3c(c2)C(=O)OC32c3ccc(O)cc3Oc3cc(O)ccc32)C(=O)N[C@@H](CC(C)C)C(=O)N[C@@H](CC(=O)O)C(=O)N1)C(=O)N[C@@H](C)C(N)=O [compound 2] |  | 355 |  | BEI (binding efficiency index) [3]: 4.07
7 | CC(C)C[C@H](NC(=O)[C@H](CC(=O)O)NC(=O)[C@H](CC(C)C)NC(=O)[C@]1(C)CCCCCCCC[C@@](C)(NC(=O)CNC(=O)[C@H](CCC(N)=O)NC(=O)COCCOCCNC(=S)Nc2ccc3c(c2)C(=O)OC32c3ccc(O)cc3Oc3cc(O)ccc32)C(=O)N[C@@H](CC(C)C)C(=O)N[C@@H](CC(=O)O)C(=O)N1)C(N)=O [compound 3] |  | 2880 |  | BEI (binding efficiency index) [3]: 3.66
8 | CC(C)C[C@@H]1NC(=O)[C@](C)(NC(=O)CNC(=O)[C@H](CCC(N)=O)NC(=O)COCCOCCNC(=S)Nc2ccc3c(c2)C(=O)OC32c3ccc(O)cc3Oc3cc(O)ccc32)CCCCCCCC[C@@](C)(C(=O)N[C@@H](CC(C)C)C(=O)N[C@@H](CC(=O)O)C(N)=O)NC(=O)[C@H](CC(=O)O)NC1=O [compound 4] |  | > 100000 |  | BEI (binding efficiency index) [3]: 2.86
9 | CC(=O)NCC(=O)N[C@]1(C)CCCCCCCC[C@@](C)(C(=O)N[C@@H](CC(C)C)C(=O)N[C@@H](CC(=O)O)C(=O)N[C@@H](CC(C)C)C(N)=O)NC(=O)[C@H](CC(=O)O)NC(=O)[C@H](CC(C)C)NC1=O [compound 5] | 12.75±0.003 |  | 1.26 | Δlog D relative to 7 (H/H) ([2]; pH 7.4): 0.63
10 | CC(C)C[C@H](NC(=O)[C@H](CC(=O)O)NC(=O)[C@H](CC(C)C)NC(=O)[C@]1(C)CCCCCCCC[C@@](C)(NC(=O)COCCOCCNC(=S)Nc2ccc3c(c2)C(=O)OC32c3ccc(O)cc3Oc3cc(O)ccc32)C(=O)N[C@@H](CC(C)C)C(=O)N[C@@H](CC(=O)O)C(=O)N1)C(N)=O [compound 6] |  | 12300 |  | BEI (binding efficiency index) [3]: 3.70
11 | CC(=O)NCC(=O)N[C@@H]1CCCCCCCC[C@@H](C(=O)N[C@@H](CC(C)C)C(=O)N[C@@H](CC(=O)O)C(=O)N[C@@H](CC(C)C)C(N)=O)NC(=O)[C@H](CC(=O)O)NC(=O)[C@H](CC(C)C)NC1=O [compound 7] | 11.70±0.007 |  | 0.63 ± 0.019 | 
12 | CC(=O)NCC(=O)N[C@@H]1CCCCCCCC[C@@](C)(C(=O)N[C@@H](CC(C)C)C(=O)N[C@@H](CC(=O)O)C(=O)N[C@@H](CC(C)C)C(N)=O)NC(=O)[C@H](CC(=O)O)NC(=O)[C@H](CC(C)C)NC1=O [compound 8] | 12.37±0.003 |  |  | LogD ([2]; pH 7.4): 1.03±0.031
13 | CC(=O)NCC(=O)N[C@]1(C)CCCCCCCC[C@@H](C(=O)N[C@@H](CC(C)C)C(=O)N[C@@H](CC(=O)O)C(=O)N[C@@H](CC(C)C)C(N)=O)NC(=O)[C@H](CC(=O)O)NC(=O)[C@H](CC(C)C)NC1=O [compound 9] | 12.35±0.003 |  | 1.01 ± 0.031 | Ki [4]: > 31600 nM
14 | CC[C@@]1(C(=O)N[C@@H](CC(C)C)C(=O)N[C@@H](CC(=O)O)C(=O)N[C@@H](CC(C)C)C(N)=O)CCCCCCCC[C@@](C)(NC(=O)CNC(C)=O)C(=O)N[C@@H](CC(C)C)C(=O)N[C@@H](CC(=O)O)C(=O)N1 [compound 10] | 12.78±0.009 |  | 1.28 ± 0.04 | 
15 | CC[C@@]1(NC(=O)CNC(C)=O)CCCCCCCC[C@@](C)(C(=O)N[C@@H](CC(C)C)C(=O)N[C@@H](CC(=O)O)C(=O)N[C@@H](CC(C)C)C(N)=O)NC(=O)[C@H](CC(=O)O)NC(=O)[C@H](CC(C)C)NC1=O [compound 11] | 12.88±0.003 |  | 1.33 ± 0.041 | 
16 | CC[C@@]1(NC(=O)CNC(C)=O)CCCCCCCC[C@@](CC)(C(=O)N[C@@H](CC(C)C)C(=O)N[C@@H](CC(=O)O)C(=O)N[C@@H](CC(C)C)C(N)=O)NC(=O)[C@H](CC(=O)O)NC(=O)[C@H](CC(C)C)NC1=O [compound 12] | 12.92±0.001 |  | 1.35 | Δlog D relative to 5 (Me/Me) ([2]; pH 7.4): 0.09
